In US20050215517A1, “Use of an anti-endotoxin drug in the prevention and treatment of disease” (priority 1999, published 2005):

How the values were obtained:
LPS endotoxin = assay: Pharmacodynamic analysis of E5564 in vivo: LPS challenge in dogs, plasma TNF-α by bioassay; parameters: species or system beagle dogs; conditions: for TNF-α at 1 hour / TNF-α at 2 hours: plasma; for TNF-α at 1 hour: 1 h after LPS 300 ng/kg i.v.; for TNF-α at 2 hours: 2 h after LPS 300 ng/kg i.v.
Procedure: FIG. 1 is a graph showing the anti-endotoxin activity of E5564 after a single bolus injection. LPS endotoxin (300 ng/kg) was injected intravenously into untreated dogs (∘) or simultaneously with 0.1 mg/kg E5564 (Δ) one hour after E5564 administration (□) or three hours after E5564 administration (●). Blood was drawn and analyzed for TNF-α concentration by bioassay, as is described in the Materials and Methods section, below. Each value represents the mean±S.E.M. of four animals.
In general, the candidate antagonist is administered to a test species of animal, and an appropriate dose of endotoxin (lipopolysaccharide (LPS)) is administered to test the ability of the candidate antagonist to block the effects of endotoxin. Some of the experiments described below use an in vivo challenge of LPS given intravenously both during and after intravenous infusion of E5564. Activity of an antagonist can also be assayed ex vivo by removing blood samples from animals treated with the candidate antagonist and testing that blood to determine if the drug is active and/or present in sufficient quantities to inhibit cellular activation by LPS. In both assays, activity of the antagonist is quantitated by analysis of the cytokines induced by LPS administration. In addition, other physiological symptoms of endotoxin poisoning can be used as readouts of activity. Studies described herein use TNF-α and/or IL-6 as readouts of cellular activation, but a variety of other cytokines and cellular mediators can also be used for this purpose.
As is shown in FIG. 1 and Table 1, delivery of 300 ng/kg of LPS into beagle dogs (“control” in FIG. 1) elicits a strong, reproducible response, as measured by levels of plasma TNF-α. […] This short activity lifetime (i.e., pharmacodynamic half-life) is an unexpected result, as the pharmacokinetic half-life of E5564 is extremely long in comparison (see below). Thus, while the unmodified (unmetabolized) drug appears to remain in circulation for a relatively long period of time, it loses activity. Because of this unexpected discovery, we have chosen to administer E5564 by infusion.
E5564 was synthesized by Eisai Research Institute of Boston, Andover, Mass., U.S.A. E5564 drug product was manufactured at the Eisai Preclinical Laboratory (Tsukuba, Japan) by dissolving 35.4 mg of drug substance in 52.1 ml 0.01 N NaOH, stirring for one hour at room temperature, and diluting into phosphate-buffered lactose. After adjusting the pH to 7.3 and diluting to a final concentration of 0.1 mg/ml E5564, the solution was filter-sterilized and lyophilized.
Escherichia coli LPS (Serotype 0111:B4; phenol extracted, Cat. # L-2630) was purchased from Sigma Chemical Co. Ltd., St. Louis, Mo., U.S.A. Lyophylized E5564 was solubilized in 5 ml of sterile water (Otsuka Pharm. Co. Ltd., Tokyo, Japan). LPS was weighed to an accuracy of 1/10 mg and solubilized in 5% glucose (Otsuka Pharm. Co. Ltd., Tokyo, Japan). The LPS solution was sonicated with a bath-type sonicator for 15 minutes after which aliquots were immediately prepared and stored at −20° C. Prior to use, the solution was sonicated for one or two minutes, and then dilutions were prepared in 5% glucose.
Nine month-old beagles were obtained from Kawashima-shoji Co. Ltd., Gifu, Japan) and housed in stainless steel wire cages (W 800 mm×D 680 mm×H 680 mm; one dog per cage) in a room with a constant temperature of 20-24° C., humidity of 45-65%, and 12 hour light-dark cycle. The animals were provided with pellet food (DS, Oriental Yeast Co., Tokyo, Japan) and water ad libitum. LPS endotoxin (300 ng/0.1 ml/kg) was injected into the vein of the right foreleg at a rate of 1-2 ml/minute, and E5564 was injected into the vein of the left foreleg at a rate of 10-20 ml/minute.
Immediately before or 1, 2, or 4 hours after intravenous injection of LPS and E5564, 1.5 ml of blood was drawn from the left cephalic vein. […]

[1] = Relative toxicity of E5564 versus B531 (animal studies); conditions: E5564 compared with B531
[2] = 0.1 mg/kg E5564 bolus one hour before LPS
[3] = 0.1 mg/kg E5564 bolus three hours before LPS

With `CCCCCC/C=C\CCCCCCCCCC(=O)N[C@H]1[C@H](OC[C@H]2O[C@H](OP(=O)(O)O)[C@H](NC(=O)CC(=O)CCCCCCCCCCC)[C@@H](OCCCCCCCCCC)[C@@H]2O)O[C@H](COC)[C@@H](OP(=O)(O)O)[C@@H]1OCC[C@@H](CCCCCCC)OC` [E5564, α-D-Glucopyranose, 3-O-decyl-2-deoxy-6-O-[2-deoxy-3-O-[(3R)-3-methoxydecyl)-6-O-methyl-2-[[(11Z)-1-oxo-11-octadecenyl)amino]-4-O-phosphono-β-D-glucopyranosyl]-2-[(1,3-dioxotetradecyl)amino]-,1-(dihydrogen phosphate)] as the molecule, how does the “Blocking of LPS challenge (plasma TNF-α)” value (LPS endotoxin; 0.1 mg/kg E5564 given at the same time as LPS 300 ng/kg) read?
The value was “completely effective”.

And the “Response to LPS (% of control)” value (LPS endotoxin; E5564 one hour before LPS)?
Its value is 0 % of control.

What about the “Sum of TNF-α (AUC)” value (LPS endotoxin; E5564 one hour before LPS) of the same molecule?
The value was 0 units/ml.

What about the “Inhibition of LPS response” value (LPS endotoxin; E5564 simultaneously with LPS) of the same molecule?
Its value is 100.

What about the “Response to LPS (% of control)” value (LPS endotoxin; E5564 simultaneously with LPS) of the same molecule?
The value was 0 % of control.

And the “Response to LPS (% of control)” value (LPS endotoxin; E5564 three hours before LPS)?
Its value is 52 % of control.

And the “Activity of the endotoxin antagonist remaining” value (LPS endotoxin; LPS administered three hours after 0.1 mg/kg E5564)?
Its value is “about 48 % of its original activity”.

What about the “TNF-α at 1 hour” value (LPS endotoxin; [2]) of the same molecule?
The value was 0 units/ml.

What about the “TNF-α at 1 hour” value (LPS endotoxin; 0.1 mg/kg E5564 bolus simultaneously with LPS, four dogs) of the same molecule?
The value was 0 units/ml.

What about the “TNF-α at 1 hour” value (LPS endotoxin; [3]) of the same molecule?
The value was 1353 ± 340 units/ml.

What about the “TNF-α at 2 hours” value (LPS endotoxin; [2]) of the same molecule?
Its value is 0 units/ml.

And the “TNF-α at 2 hours” value (LPS endotoxin; 0.1 mg/kg E5564 bolus simultaneously with LPS)?
Its value is 0 units/ml.

And the “TNF-α at 2 hours” value (LPS endotoxin; [3])?
The value was 190 ± 113 units/ml.

What about the “Toxicity relative to B531” value [1] of the same molecule?
The value was “about twenty-fold less toxic than B531”.
